# In ChEMBL document CHEMBL1201862, “PubChem BioAssay data set” (2004):
# Calls of active or inactive are those of the source.
# Tests used:
# [1] = test system: HEK293; assay: cells; type: functional, cell-based; details: Homo sapiens
# [2] = test system: HEK293; assay: NOD2 signaling inhibitors in MDP-stimulated cells, cell-based, uHTS, luminescence (AID 2001); type: functional; details: Homo sapiens
# [3] = target: Nucleotide-binding oligomerization domain-containing protein 2 (Homo sapiens, UniProt Q9HC29); assay: NOD2 signaling inhibitors, cell-based, luminescence, uHTS, HEK293 (AID 1566); type: functional
# [4] = test system: HEK293; assay: NOD1 signaling inhibitors, primary screen, cell-based, luminescence, uHTS (AID 1578); type: functional; details: Homo sapiens
# [5] = test system: HEK293; assay: cells; type: functional, cell-based; details: Homo sapiens; remark: listed apart in the source
# [6] = test system: HEK293; assay: cells; type: functional, cell-based; details: Homo sapiens; remark: listed apart in the source
# [7] = target: Neurotensin receptor type 1 (Homo sapiens, UniProt P30989); type: functional;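 note: Image-based confirmatory dose-response assay measuring agonist activity at NTR1; NTR1-expressing U2OS osteosarcoma cells imaged for beta-arrestin GFP spot formation; agonist potency where compounds increase beta-arrestin recruitment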
# [8] = target: T1, Microphthalmia-associated transcription factor (Homo sapiens, UniProt O75030); assay: TRPM1 promoter luciferase signal decrease, dose response, MITF inhibitor project, cell-based, SK-MEL-5, cherry-picked, set 3 (AID 493073); type: functional
# T1 sequence (O75030 whole entry): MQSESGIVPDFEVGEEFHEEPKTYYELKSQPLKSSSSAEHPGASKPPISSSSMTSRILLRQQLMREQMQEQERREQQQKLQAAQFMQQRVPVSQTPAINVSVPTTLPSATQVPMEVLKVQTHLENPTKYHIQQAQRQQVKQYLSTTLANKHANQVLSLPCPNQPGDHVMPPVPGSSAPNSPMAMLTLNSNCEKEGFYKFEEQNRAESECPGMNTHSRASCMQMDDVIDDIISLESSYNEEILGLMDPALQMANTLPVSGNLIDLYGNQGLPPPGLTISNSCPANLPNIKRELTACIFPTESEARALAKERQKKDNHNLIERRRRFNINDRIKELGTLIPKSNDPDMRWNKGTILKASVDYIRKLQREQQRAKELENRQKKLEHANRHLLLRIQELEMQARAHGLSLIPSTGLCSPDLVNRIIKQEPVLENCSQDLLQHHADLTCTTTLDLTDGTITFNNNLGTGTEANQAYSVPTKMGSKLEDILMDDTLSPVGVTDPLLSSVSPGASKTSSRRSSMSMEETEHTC
# [9] = Luminescence-based cell-based high throughput dose response assay to identify activators of the DAF-12 from the parasite S. stercoralis (ssDAF-12).; type: functional
# [10] = Fluorescence-based cell-based high throughput dose response assay for inhibitors of the interaction of nucleotide-binding oligomerization domain containing 2 (NOD2) and the receptor-interacting serine-threonine kinase 2 (RIPK2).; type: functional, Homo sapiens; details: Homo sapiens
# [11] = target: T2, Cytochrome P450 3A4 (Homo sapiens, UniProt P08684); details: Potency
# T2 sequence (P08684 whole entry): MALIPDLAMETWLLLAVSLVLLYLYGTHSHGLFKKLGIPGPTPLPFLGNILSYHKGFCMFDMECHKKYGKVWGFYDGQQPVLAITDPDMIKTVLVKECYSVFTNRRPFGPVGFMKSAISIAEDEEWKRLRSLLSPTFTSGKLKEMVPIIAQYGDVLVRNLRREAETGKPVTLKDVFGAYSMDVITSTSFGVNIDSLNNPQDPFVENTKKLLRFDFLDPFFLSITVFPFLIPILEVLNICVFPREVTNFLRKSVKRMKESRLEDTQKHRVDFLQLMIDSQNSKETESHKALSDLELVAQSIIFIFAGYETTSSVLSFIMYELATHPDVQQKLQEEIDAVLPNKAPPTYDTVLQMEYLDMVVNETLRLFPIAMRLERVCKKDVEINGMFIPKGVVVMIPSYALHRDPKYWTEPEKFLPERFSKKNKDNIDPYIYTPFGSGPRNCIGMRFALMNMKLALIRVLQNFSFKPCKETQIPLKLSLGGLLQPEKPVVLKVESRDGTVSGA
# [12] = target: Large T antigen (Simian virus 40, UniProt P03070); type: functional, Betapolyomavirus macacae;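 note: Confirmatory-stage PubChem screen for compounds that inhibit SV40 T antigen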
# Sequence of Large T antigen (P03070 whole entry): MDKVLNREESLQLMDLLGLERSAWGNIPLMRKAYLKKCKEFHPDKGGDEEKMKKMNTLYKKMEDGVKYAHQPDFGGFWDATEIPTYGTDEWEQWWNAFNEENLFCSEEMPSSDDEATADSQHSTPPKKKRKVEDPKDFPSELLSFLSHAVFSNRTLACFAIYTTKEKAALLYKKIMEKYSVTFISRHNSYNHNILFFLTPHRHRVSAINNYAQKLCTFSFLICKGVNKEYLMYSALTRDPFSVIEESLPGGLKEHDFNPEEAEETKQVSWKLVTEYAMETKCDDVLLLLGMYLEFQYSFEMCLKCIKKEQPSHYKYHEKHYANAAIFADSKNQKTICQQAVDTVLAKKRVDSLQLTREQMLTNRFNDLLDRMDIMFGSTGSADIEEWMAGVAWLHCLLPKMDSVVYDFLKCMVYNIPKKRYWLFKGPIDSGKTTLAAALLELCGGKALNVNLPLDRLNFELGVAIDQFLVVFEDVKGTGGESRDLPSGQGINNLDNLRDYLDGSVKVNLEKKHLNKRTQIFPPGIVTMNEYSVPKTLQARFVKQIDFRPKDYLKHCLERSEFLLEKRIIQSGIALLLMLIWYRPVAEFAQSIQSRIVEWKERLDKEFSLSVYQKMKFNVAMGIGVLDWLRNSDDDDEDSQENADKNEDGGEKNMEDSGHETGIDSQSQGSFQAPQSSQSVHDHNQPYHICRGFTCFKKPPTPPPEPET
# [13] = target: T3, Alkaline phosphatase, tissue-nonspecific isozyme (Homo sapiens, UniProt P05186)
# T3 sequence (P05186 whole entry): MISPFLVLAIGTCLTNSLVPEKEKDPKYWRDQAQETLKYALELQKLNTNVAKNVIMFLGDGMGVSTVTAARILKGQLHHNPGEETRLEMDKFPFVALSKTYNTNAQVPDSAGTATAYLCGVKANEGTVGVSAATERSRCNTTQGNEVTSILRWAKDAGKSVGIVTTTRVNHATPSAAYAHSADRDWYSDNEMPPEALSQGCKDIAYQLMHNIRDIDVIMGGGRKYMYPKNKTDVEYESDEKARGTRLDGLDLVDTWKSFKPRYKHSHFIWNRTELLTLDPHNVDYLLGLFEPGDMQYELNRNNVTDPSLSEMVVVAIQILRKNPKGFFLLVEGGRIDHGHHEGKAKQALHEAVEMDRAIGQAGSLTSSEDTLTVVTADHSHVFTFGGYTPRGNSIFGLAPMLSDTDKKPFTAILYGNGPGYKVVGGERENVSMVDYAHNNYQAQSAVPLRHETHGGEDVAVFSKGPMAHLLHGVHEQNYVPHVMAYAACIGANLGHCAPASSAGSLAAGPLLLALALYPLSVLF
# [14] = target: T2, Cytochrome P450 3A4
# [15] = target: Cytochrome P450 2D6 (Homo sapiens, UniProt P10635);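 note: CYP2D6 member of a cytochrome P450 panel assay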
# [16] = cytotoxicity toward NIH3T3 fibroblasts, dose response, counter-screen, cell-based, ATP luminescence, mouse fibroblasts (AID 2010); type: functional;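 note: cells exposed to compound for about 90 hours before reading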
# [17] = target: Bcl-2-like protein 10 (Homo sapiens, UniProt Q9HD36); assay: displacers of TR3 peptide from Bcl-B, primary screen, selectivity assay for Bfl-1 inhibitor project, biochemical, fluorescence polarization, FITC-TR3 peptide (AID 748);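 note: fluorescence polarization from a fluorescein-labelled TR3 peptide binding purified Bcl-B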
# [18] = inhibitors of intracellular T. cruzi replication, confirmation, NIH3T3 host cells, beta-gal luminescence (AID 2044); type: functional, cell-based;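 note: intracellular parasites grown in NIH/3T3 mouse fibroblasts as host cells; luminescent beta-galactosidase reporter signal from transgenic T. cruzi replicating inside host cells; inhibitors lower the luminescence signal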
# [19] = target: G-protein coupled receptor 55 (Homo sapiens, UniProt Q9Y2T6); assay: GPR55 agonists via beta-arrestin recruitment, primary screen, imaging, U2OS cells, beta-arrestin-GFP redistribution (AID 1961); type: functional
# [20] = target: T4, Coagulation factor XII (Homo sapiens, UniProt P00748); assay: Factor XIIa Dose Response Confirmation from Single Well HTS. [Related pubchem assays (depositor defined):AID701]; type: functional
# T4 sequence (P00748 whole entry): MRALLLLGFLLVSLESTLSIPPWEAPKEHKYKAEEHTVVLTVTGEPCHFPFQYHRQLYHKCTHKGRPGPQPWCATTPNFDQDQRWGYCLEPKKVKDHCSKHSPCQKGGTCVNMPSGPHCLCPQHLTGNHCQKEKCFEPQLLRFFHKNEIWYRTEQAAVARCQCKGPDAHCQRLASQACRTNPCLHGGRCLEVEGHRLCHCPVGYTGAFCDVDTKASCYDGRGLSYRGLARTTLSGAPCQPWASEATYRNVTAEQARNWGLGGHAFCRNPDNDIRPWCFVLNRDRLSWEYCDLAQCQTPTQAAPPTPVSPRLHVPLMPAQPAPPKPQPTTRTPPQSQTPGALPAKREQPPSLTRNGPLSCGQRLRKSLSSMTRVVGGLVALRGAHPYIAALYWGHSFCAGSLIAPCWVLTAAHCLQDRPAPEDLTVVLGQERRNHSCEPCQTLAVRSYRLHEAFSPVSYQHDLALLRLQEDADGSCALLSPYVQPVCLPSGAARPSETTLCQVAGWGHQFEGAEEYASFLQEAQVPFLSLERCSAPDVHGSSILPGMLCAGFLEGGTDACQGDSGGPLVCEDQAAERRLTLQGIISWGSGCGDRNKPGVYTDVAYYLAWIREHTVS
# [21] = test system: HeLa; assay: HeLa cell cytotoxicity, dose response, cytotoxicity control, 24 h, cherry-picked samples (AID 504726); type: functional, cell-based; details: Homo sapiens;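 note: potency for cytotoxicity as loss of luminescence signal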
# [22] = target: Protein Rev (Human immunodeficiency virus type 1 group M subtype B (isolate HXB2)(HIV-1), UniProt P04618); assay: inhibitors of Rev binding to RRE RNA, dose response, biochemical, fluorescence polarization, HIV-1 (AID 434976); parameters: species or system Human immunodeficiency virus 1
# Sequence of Protein Rev (P04618 whole entry): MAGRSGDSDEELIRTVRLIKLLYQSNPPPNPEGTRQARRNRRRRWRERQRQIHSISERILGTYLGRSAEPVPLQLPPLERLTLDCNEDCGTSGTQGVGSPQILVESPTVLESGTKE
# [23] = target: Female germline-specific tumor suppressor gld-1 (Caenorhabditis elegans, UniProt Q17339); assay: inhibitors of GLD-1 binding to TGE RNA, dose response, biochemical, fluorescence polarization, C. elegans (AID 2802);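 note: fluorescence polarization of labeled TGE RNA bound by purified gld-1 protein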
# [24] = target: Acyl-homoserine lactone acylase PvdQ (Pseudomonas aeruginosa (strain LESB58), UniProt Q9I194); assay: P. aeruginosa PvdQ acylase inhibitors, dose response, biochemical, fluorescence, plate reader and imaging, cherry-picks (AID 493231)
# [25] = target: T5, Polyadenylate-binding protein 1 (Homo sapiens, UniProt P11940); assay: PABP1 MLLE–PAM2 binding inhibitor potency, dose response, biochemical, fluorescence polarization, FITC-PAM2 peptide (AID 602259); type: functional; details: read-out: IC50_Mean
# [26] = target: T5, Polyadenylate-binding protein 1; assay: PABP1 MLLE–PAM2 interaction inhibitors, dose response, miRNA deadenylation inhibitor project, biochemical, fluorescence polarization, Cy5-PAM2 peptide, secondary (AID 602260); type: functional; details: read-out: IC50_Mean
# [27] = target: T6, Voltage-gated N-type calcium channel alpha-1B subunit/Amyloid beta A4 precursor protein-binding family A member 1 (Homo sapiens, UniProt Q00975+Q02410); assay: disruptors of Mint-PDZ/N-type channel peptide interaction – biochemical, HTRF, set 2, SAR follow-up (AID 434980); type: functional
# T6 sequence (Q00975 whole entry): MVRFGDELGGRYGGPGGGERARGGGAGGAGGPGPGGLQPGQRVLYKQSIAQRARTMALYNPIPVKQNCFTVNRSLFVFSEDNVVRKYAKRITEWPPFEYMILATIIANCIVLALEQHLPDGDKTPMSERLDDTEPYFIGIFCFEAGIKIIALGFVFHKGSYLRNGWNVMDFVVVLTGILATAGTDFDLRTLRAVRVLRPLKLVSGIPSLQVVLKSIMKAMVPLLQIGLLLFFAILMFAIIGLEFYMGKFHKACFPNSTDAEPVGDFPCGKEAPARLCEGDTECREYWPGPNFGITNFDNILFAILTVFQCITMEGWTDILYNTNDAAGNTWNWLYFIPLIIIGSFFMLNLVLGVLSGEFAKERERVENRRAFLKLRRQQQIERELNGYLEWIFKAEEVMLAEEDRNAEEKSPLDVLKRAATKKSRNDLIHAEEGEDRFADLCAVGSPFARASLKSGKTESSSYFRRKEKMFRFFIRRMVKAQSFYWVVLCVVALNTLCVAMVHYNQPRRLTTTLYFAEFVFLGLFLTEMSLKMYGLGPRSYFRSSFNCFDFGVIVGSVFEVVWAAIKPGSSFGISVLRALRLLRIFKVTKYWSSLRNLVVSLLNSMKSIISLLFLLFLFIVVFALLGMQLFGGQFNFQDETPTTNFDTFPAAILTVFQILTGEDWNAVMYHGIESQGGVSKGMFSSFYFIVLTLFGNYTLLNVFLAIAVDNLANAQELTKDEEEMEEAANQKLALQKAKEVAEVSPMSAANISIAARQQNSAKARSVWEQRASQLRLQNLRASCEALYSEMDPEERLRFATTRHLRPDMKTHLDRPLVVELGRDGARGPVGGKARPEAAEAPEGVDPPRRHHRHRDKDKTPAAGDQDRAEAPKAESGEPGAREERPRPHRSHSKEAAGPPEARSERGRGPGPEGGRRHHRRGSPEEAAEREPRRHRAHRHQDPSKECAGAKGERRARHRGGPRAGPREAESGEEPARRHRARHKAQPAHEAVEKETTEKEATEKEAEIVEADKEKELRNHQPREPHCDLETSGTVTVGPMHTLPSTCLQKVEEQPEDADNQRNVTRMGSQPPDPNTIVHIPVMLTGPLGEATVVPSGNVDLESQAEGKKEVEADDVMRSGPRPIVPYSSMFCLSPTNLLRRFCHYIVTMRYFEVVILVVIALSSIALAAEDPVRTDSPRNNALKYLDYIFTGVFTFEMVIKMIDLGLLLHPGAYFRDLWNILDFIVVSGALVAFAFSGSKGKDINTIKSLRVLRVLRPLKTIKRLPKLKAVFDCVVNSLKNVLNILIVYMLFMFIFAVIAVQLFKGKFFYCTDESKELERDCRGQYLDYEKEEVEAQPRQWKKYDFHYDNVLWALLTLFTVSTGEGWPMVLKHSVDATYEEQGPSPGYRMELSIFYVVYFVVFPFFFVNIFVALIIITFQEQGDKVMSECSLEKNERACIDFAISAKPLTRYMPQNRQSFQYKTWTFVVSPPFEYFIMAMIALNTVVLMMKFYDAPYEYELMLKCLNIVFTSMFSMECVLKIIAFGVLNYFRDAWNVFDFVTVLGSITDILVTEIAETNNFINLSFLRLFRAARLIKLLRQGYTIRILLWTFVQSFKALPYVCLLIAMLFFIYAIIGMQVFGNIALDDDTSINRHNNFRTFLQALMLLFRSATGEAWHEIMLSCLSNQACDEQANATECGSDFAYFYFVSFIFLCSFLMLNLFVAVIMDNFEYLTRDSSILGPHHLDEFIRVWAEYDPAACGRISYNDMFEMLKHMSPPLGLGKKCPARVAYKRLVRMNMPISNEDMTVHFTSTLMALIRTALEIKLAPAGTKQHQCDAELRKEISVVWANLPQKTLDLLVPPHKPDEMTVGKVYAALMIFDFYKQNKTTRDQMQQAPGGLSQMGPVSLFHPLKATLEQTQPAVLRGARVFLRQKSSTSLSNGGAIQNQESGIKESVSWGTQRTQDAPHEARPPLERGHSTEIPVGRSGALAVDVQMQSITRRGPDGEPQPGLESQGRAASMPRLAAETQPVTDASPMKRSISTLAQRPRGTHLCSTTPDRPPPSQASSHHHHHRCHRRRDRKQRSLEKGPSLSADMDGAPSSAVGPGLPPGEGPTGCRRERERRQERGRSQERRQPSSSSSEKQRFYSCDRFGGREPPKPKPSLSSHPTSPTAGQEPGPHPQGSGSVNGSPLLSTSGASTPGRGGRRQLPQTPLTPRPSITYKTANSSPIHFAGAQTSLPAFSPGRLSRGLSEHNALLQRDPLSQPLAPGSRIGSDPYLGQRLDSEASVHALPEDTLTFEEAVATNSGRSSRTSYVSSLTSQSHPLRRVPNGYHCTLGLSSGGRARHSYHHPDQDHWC
# T6 sequence (Q02410 whole entry): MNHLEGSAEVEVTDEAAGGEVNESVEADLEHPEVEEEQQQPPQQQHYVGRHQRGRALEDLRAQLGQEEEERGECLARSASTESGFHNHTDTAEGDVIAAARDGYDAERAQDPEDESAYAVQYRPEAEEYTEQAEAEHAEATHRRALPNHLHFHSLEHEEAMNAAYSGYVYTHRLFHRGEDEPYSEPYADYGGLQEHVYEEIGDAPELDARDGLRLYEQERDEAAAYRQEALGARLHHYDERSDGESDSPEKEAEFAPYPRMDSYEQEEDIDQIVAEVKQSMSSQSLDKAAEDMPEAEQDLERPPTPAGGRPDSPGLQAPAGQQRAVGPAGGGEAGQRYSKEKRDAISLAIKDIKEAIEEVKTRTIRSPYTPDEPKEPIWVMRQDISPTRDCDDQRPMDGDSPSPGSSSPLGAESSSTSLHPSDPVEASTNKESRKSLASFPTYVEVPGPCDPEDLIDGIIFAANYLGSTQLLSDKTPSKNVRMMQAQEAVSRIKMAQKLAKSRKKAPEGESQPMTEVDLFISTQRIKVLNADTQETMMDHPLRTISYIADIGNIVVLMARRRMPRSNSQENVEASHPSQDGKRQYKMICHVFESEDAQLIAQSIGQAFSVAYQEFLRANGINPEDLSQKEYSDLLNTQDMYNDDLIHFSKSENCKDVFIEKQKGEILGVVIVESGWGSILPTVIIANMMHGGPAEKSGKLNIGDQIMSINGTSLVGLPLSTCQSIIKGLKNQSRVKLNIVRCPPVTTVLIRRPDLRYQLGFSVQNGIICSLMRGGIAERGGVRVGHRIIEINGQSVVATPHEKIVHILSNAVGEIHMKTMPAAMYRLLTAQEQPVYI
# [28] = target: Hexokinase (Trypanosoma brucei, UniProt Q38C41); assay: Confirmation assay for inhibitors of Trypanosoma brucei hexokinase 1-Analogue-first series. [Related pubchem assays (depositor defined):AID1430, AID1632, AID2516, AID2560, AID2579, AID2600, AID449725, AID492951]; type: functional
# Sequence of Hexokinase (Q38C41 whole entry): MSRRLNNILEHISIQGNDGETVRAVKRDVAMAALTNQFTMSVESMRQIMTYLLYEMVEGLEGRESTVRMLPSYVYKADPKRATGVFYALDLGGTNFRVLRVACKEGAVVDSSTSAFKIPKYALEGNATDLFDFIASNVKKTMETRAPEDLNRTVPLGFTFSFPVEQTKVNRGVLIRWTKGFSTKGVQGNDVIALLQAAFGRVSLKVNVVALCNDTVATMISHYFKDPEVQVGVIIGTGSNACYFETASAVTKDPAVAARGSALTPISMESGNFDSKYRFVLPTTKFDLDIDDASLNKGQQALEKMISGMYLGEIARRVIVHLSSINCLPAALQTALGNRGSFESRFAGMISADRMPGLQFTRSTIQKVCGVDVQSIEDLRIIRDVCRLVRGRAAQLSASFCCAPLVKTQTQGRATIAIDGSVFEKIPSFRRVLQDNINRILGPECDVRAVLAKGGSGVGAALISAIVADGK
# [29] = target: T7, Tyrosine-protein phosphatase non-receptor type 7 (Homo sapiens, UniProt P35236); assay: HePTP (PTPN7) phosphatase inhibitor potency, SAR follow-up, biochemical, set 2 (AID 449736); type: functional
# T7 sequence (P35236 whole entry): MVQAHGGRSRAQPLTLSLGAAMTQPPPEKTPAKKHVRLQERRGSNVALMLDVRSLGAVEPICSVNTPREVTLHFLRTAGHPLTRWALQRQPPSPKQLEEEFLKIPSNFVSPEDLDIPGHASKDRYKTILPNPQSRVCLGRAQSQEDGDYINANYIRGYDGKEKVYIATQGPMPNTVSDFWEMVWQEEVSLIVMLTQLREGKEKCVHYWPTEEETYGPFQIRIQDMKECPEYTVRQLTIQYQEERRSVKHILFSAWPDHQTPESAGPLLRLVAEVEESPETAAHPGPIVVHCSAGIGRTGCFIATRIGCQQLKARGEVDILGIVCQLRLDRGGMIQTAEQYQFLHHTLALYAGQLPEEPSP
# [30] = target: FAD-linked sulfhydryl oxidase ALR (Homo sapiens, UniProt P55789); assay: inhibitors of human ALR sulfhydryl oxidase, dose response, biochemical, H2O2 detection, luminescence, cherry-pick (AID 493248)
# [31] = target: T6, Voltage-gated N-type calcium channel alpha-1B subunit/Amyloid beta A4 precursor protein-binding family A member 1; type: protein assay
# [32] = target: T8, Carboxy-terminal domain RNA polymerase II polypeptide A small phosphatase 1 (Homo sapiens, UniProt Q9GZU7); assay: inhibitors of CTDSP1, concentration-response testing, biochemical assay, absorbance-based, actives from ultra-high-throughput screening (AID 540297); type: functional
# T8 sequence (Q9GZU7 whole entry): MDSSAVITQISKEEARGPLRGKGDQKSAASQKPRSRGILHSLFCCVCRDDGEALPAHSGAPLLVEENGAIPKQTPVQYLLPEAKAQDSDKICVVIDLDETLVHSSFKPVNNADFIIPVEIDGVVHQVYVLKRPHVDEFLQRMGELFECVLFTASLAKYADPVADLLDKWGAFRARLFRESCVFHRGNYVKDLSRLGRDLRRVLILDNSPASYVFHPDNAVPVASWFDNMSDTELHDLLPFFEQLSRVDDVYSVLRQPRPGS
# [33] = target: Induced myeloid leukemia cell differentiation protein Mcl-1 (Homo sapiens, UniProt Q07820); type: functional
# [34] = target: T6, Voltage-gated N-type calcium channel alpha-1B subunit/Amyloid beta A4 precursor protein-binding family A member 1; type: protein assay; remark: listed apart in the source
compound,measurement,setting,value
Cc1nc(N2CCN(C(=O)COc3ccccc3)CC2)c2c(C)c(C)sc2n1,IC50,[1],5.32 µM (active)
same,IC50,[2],5.95 µM (active)
same,EC50,[3],7.34 µM (active)
same,EC50,[4],5.68 µM (active)
same,IC50,[5],> 20 µM (inactive)
same,IC50,[6],11.9 µM (active)
Cc1cc(N2CCOCC2)ccc1/C=C\[N+](=O)[O-],EC50,[7],22.4 µM (inactive)
same,AC50,[8],22.5 µM (active)
same,IC50,[9],> 67.5 µM (inactive)
same,IC50,[10],4.34 µM (active)
COC(=O)c1ccc(C23CC4(C2)[C@H](CN(C)[C@@H]4c2ccccc2)C3c2ccc(Cl)nc2)cc1 (some centres not stated),AC50,[11],20 µM (inconclusive)
CC(C)CC1=NN2C(=N)/C(=C\c3coc4ccccc4c3=O)C(=O)N=C2S1,IC50,[12],18.3 µM (active)
Cc1cc([N+](=O)[O-])nn1CC(=O)NN=C(S)Nc1ccc(F)cc1,EC50,[13],55.5 µM (not active)
same,AC50,[14],22.4 µM (inconclusive)
same,AC50,[15],0.00562 µM (inconclusive)
Cc1ccc(CNc2ccc3c(c2)OCO3)cc1,EC50,[16],> 60 µM (not active)
same,IC50,[17],> 3.13 µM (inactive)
same,EC50,[18],1.52 µM (active)
O=C(/C=C/c1cccc(Br)c1)c1ccc2c(c1)OCO2,EC50,[19],4.03 µM (active)
FC(F)(F)c1cnc(Oc2ccc(-c3nnco3)cc2)c(Cl)c1,IC50,[20],> 50 µM (inactive)
CCN(c1ccccc1)S(=O)(=O)c1ccc(C(=O)N(CCN(C)C)c2nc3c(F)cc(F)cc3s2)cc1,EC50,[19],> 32 µM (inactive)
CN(C)c1ccc(/C=C/C(=O)c2ccc(O)cc2)cc1[N+](=O)[O-],AC50,[21],51.7 µM (active)
COc1ccc(NC(=O)Cc2ccccc2)cn1,IC50,[22],> 25.2 µM (not active)
same,IC50,[23],15.1 µM (inactive)
COC(=O)c1ccc(OC(=O)c2ccco2)cc1,AC50,[24],1.99 µM (active)
CC(=O)O[C@](C)(CCC=C(C)C)C1CC=C(C)CC1 (some centres not stated),AC50,[11],31.6 µM (inconclusive)
CCOC(=O)c1cc2c(ccn2C)n1CC(=O)N(Cc1ccccc1)c1ccccc1,IC50,[22],> 75.4 µM (not active)
same,IC50,[25],> 66 µM (inactive)
same,IC50,[26],> 66 µM (inactive)
same,IC50,[23],> 6.62 µM (active)
COc1ccccc1N1CCN(C(=O)c2cc(-c3ccco3)nc3ccccc23)CC1,IC50,[27],> 56.8 µM (inactive)
O=C(Cn1sc2ccccc2c1=O)Nc1cccc(F)c1,IC50,[28],4.78 µM (active)
CCNS(=O)(=O)c1ccc(NC(=S)NC2CCCCC2)cc1,IC50,[29],> 100 µM (inactive)
COc1ccc(NC(=O)Cn2sc3ccccc3c2=O)cc1,IC50,[28],5.63 µM (active)
O=CNC1(c2ccccc2)CCCCC1,AC50,[24],1.96 µM (active)
Cc1ccc(/C=N/Nc2cccc3cccnc23)c(O)c1,EC50,[13],> 100 µM (not active)
COc1cc(/C=N/NC(=O)c2cccs2)ccc1O,AC50,[30],1.65 µM (active)
same,IC50,[12],5.62 µM (active)
Cc1c(O)cc2c(c1O)C(=O)CC(c1ccc(O)cc1)O2 (configuration not stated),IC50,[31],13.1 µM (active)
same,IC50,[32],4.74 µM (active)
same,IC50,[33],3.94 µM (active)
same,IC50,[34],> 50 µM (inactive)
